In ChEMBL document CHEMBL1201862, “PubChem BioAssay data set” (2004):
Active and inactive are the calls of the source.

Assays:
[1] = target: T1, RNA-binding protein pos-1 (Caenorhabditis elegans, UniProt G5EF15); experiment: inhibitors of POS-1/mex-3 RNA binding, dose response, biochemical, fluorescence polarization (AID 1964);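 also: purified POS-1 fused to maltose binding protein made in E. coli; potency of compounds blocking POS-1 binding to fluorescent RNA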
T1 sequence (G5EF15 whole entry): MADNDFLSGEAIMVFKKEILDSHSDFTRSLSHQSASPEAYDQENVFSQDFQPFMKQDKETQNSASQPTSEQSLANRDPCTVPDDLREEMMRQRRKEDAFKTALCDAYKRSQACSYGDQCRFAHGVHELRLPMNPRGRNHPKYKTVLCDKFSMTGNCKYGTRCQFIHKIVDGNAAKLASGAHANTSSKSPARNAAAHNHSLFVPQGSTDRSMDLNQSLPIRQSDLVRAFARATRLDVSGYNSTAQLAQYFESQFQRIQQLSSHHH

[2] = target: T2, Zinc finger protein mex-5 (Caenorhabditis elegans, UniProt Q9XUB2); experiment: MEX-5/TCR-2 RNA interaction inhibitors, dose response, biochemical, C. elegans, fluorescence polarization (AID 1960)
T2 sequence (Q9XUB2 whole entry): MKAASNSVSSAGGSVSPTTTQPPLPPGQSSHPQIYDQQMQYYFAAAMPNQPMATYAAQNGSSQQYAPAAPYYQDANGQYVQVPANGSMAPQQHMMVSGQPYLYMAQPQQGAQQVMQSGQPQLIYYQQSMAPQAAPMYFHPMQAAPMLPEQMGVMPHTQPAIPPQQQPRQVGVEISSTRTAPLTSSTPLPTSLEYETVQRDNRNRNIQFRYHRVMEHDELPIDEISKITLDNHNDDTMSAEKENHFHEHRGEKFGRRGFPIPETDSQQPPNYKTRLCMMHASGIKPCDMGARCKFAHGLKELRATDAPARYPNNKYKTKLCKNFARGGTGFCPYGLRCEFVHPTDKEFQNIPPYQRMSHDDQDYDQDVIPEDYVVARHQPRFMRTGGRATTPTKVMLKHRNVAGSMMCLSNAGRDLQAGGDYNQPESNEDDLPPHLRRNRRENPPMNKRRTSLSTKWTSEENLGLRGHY

[3] = target: Luciferin 4-monooxygenase (Photinus pyralis, UniProt P08659); experiment: firefly luciferase enzyme inhibitors, dose response, biochemical, luminescence (AID 1891)
[4] = Luminescence Cell-Based Dose Confirmation HTS to Identify Inhibitors of Platelet Dense Granule Release. [Related pubchem assays: 1663 (Primary HTS), 1678 (Summary of Project)]; type: functional
[5] = target: T3, Polyadenylate-binding protein 1 (Homo sapiens, UniProt P11940); experiment: PABP1 MLLE–PAM2 interaction inhibitors, dose response, miRNA deadenylation inhibitor project, biochemical, fluorescence polarization, Cy5-PAM2 peptide, secondary (AID 602260); type: functional; details: read-out: IC50_Mean
[6] = target: T3, Polyadenylate-binding protein 1; experiment: PABP1 MLLE–PAM2 binding inhibitor potency, dose response, biochemical, fluorescence polarization, FITC-PAM2 peptide (AID 602259); type: functional; details: read-out: IC50_Mean
Aminopeptidase N = target: T4, Aminopeptidase N (Plasmodium falciparum FcB1/Columbia, UniProt O96935); experiment: P. falciparum M1AAP inhibitors, biochemical, fluorogenic H-Leu-NHMec substrate, 1536-well (AID 1445); design: species or system Plasmodium falciparum 3D7, 3D7
T4 sequence (O96935 whole entry): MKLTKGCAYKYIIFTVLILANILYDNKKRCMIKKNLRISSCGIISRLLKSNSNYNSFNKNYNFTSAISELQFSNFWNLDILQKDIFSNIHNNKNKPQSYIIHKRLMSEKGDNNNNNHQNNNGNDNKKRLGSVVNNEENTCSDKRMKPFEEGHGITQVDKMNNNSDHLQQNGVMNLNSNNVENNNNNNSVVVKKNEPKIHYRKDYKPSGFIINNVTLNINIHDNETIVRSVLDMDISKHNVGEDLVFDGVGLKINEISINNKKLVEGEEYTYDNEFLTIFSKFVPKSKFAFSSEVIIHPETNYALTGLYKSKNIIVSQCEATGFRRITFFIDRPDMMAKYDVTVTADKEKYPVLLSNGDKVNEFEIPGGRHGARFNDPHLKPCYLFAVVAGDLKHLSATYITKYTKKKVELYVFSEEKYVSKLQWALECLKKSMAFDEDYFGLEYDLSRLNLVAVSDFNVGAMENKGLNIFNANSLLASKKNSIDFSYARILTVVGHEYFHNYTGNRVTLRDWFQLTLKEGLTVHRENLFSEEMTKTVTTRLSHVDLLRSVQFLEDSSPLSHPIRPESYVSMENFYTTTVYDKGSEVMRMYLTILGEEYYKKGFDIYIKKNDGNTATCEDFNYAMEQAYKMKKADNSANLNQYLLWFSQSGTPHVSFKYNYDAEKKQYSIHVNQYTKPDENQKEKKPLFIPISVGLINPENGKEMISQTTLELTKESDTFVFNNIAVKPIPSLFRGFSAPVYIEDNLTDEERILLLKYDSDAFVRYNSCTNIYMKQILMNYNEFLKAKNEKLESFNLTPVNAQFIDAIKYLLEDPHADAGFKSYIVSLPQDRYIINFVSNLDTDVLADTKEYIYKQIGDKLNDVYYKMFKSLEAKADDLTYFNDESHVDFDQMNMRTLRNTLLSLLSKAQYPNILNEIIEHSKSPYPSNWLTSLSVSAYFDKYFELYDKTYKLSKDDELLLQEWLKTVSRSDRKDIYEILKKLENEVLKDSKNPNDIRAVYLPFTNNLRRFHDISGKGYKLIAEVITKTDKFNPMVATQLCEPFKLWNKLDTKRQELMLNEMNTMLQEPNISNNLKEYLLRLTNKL

[7] = target: T5, DNA repair and recombination protein RAD54-like (Homo sapiens, UniProt Q92698); experiment: inhibitors of human RAD54 branch migration, confirmation, biochemical, fluorescence, cherry-picked samples, dose series (AID 651657); type: functional
T5 sequence (Q92698 whole entry): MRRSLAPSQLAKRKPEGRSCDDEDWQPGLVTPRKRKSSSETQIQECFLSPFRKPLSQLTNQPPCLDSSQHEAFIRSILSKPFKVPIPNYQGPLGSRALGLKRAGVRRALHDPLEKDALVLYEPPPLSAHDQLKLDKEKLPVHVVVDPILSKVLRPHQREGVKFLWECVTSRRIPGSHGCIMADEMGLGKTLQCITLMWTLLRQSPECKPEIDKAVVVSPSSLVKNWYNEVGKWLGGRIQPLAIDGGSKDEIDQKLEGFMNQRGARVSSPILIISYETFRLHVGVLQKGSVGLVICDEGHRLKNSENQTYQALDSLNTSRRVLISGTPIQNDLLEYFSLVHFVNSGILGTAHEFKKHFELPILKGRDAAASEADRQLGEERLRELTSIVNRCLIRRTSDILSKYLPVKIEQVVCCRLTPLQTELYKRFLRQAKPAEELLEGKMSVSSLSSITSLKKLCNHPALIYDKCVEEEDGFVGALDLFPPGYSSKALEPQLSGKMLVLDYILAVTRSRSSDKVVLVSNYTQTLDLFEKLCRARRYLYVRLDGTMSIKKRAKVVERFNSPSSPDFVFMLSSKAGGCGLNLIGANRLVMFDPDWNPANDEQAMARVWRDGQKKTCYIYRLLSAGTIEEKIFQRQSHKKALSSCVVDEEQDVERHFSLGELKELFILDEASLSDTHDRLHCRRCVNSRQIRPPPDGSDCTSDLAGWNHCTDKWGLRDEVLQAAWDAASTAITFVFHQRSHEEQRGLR

[8] = inhibitors of HIV Env-driven cell fusion, dose response, cherry-pick (AID 652057); type: functional, cell-based
[9] = inhibitors of clade B AD8 Env fusion, dose response, cell-based, cherry-pick (AID 652062); type: functional;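 also: luciferase signal from cell-cell fusion driven by HIV-1 clade B AD8 Env; potency is for inhibitors of fusion seen as a drop in luminescence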

Sequence of Luciferin 4-monooxygenase (P08659 whole entry): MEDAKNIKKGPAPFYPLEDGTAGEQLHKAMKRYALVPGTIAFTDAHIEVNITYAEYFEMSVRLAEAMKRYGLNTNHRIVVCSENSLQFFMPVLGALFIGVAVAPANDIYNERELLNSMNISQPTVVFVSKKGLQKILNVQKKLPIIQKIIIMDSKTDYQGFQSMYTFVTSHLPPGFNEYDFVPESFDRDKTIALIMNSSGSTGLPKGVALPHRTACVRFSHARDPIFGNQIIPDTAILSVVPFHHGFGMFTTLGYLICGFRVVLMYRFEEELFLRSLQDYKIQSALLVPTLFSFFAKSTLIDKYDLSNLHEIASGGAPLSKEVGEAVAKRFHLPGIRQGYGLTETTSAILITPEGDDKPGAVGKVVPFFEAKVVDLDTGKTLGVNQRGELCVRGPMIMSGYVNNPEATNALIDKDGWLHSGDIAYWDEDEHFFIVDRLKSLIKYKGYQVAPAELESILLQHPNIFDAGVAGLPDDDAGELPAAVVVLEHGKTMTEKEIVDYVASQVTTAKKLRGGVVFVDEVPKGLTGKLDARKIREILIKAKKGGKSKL
T3 sequence (P11940 whole entry): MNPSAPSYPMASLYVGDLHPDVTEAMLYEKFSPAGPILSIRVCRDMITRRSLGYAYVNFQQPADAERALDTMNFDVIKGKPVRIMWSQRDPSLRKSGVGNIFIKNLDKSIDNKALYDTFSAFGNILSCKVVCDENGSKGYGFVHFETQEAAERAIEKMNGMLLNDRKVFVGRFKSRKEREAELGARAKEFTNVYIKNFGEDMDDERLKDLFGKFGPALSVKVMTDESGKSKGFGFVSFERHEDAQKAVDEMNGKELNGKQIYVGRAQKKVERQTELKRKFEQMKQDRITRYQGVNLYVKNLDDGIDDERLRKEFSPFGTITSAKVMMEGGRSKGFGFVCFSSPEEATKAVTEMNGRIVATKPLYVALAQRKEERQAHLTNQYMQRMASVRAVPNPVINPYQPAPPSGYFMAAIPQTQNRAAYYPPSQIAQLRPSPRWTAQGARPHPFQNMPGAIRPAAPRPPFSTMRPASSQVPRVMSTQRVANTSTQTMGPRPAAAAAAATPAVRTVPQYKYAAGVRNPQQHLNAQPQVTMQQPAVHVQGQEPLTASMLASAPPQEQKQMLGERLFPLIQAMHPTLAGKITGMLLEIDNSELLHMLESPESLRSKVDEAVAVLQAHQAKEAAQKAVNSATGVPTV

## CC1(C)c2[nH]c3ccccc3c2C[C@@H]2C(=O)N(c3ccc(F)cc3F)C(=O)N21
[1]
  EC50: > 300 µM (not active)
[2]
  EC50: 46.8 µM (active)

## Cc1ccc(NC(S)=Nc2ccc3c[nH]nc3c2)cc1
[3]
  EC50: > 112 µM (not active)
[4]
  EC50: > 112 µM (not active)

## Cn1c(O)nc2cc(Cl)cnc21
[1]
  EC50: 27 µM (active)
[2]
  EC50: 24.8 µM (active)
[5]
  IC50: > 66 µM (inactive)
[6]
  IC50: 35.1 µM (inactive)

## COc1cccc(C(=O)NC2CCN(CC(=O)NCc3ccccc3OC)CC2)c1
Aminopeptidase N
  IC50: 26.9 µM (active)

## Oc1ccccc1-c1nc(NCCN2CCOCC2)c2ccccc2n1
[7]
  AC50: 29.5 µM (active)

## CCOC(=O)CSc1nc2ccc(N)cc2s1
[3]
  EC50: > 112 µM (not active)
[4]
  EC50: > 112 µM (not active)

## CCC(=O)OC1(C)C(=O)C=C2C=C(c3ccc(C#N)cc3)OC=C2C1=O (configuration not stated)
[1]
  EC50: 85.4 µM (active)
[2]
  EC50: 40.8 µM (active)

## O=C(Cn1c(SCc2ccccc2)nc2ccccc21)N1CCOCC1
Aminopeptidase N
  IC50: 48.7 µM (active)

## C=CCn1cc(/C=N/Nc2nc3ccccc3[nH]2)c2ccccc21
[3]
  EC50: 45.1 µM (active)
[4]
  EC50: > 112 µM (not active)

## C[C@@H]1CN([C@H](C)CO)S(=O)(=O)c2ccc(-c3ccccc3)cc2O[C@@H]1CN(C)Cc1ccccc1
[8]
  AC50: 31.8 µM (active)

## C[C@H]1CN([C@@H](C)CO)C(=O)c2cc(NS(C)(=O)=O)ccc2O[C@@H]1CN(C)Cc1ccc(Cl)c(Cl)c1
[8]
  AC50: 48.9 µM (active)

## C[C@H]1CN([C@@H](C)CO)C(=O)c2c(c3ccccc3n2C)-c2ccccc2CO[C@H]1CN(C)C(=O)CCC(F)(F)F
[8]
  AC50: < 0.26 µM (active)
[9]
  AC50: 0.411 µM (active)

## COCCCn1c(-c2ccc(S(=O)(=O)N3CCOCC3)cc2)cs/c1=N/c1ccccc1
[9]
  AC50: 15.3 µM (active)
